Like-named read-outs stand apart in the source and are kept apart here.
What was measured:
A2A receptor [1] = molecular target: T1, A2A receptor (Homo sapiens, UniProt P29274); experiment: Inhibition of cAMP production in HEK cells; format: cell-based; settings: HEK-293 cells with A2A receptor
A2A receptor [2] = molecular target: T1, A2A receptor; experiment: Human IL-2 T cell assay (restoration of IL-2 production in CGS-21680-treated CD3+ T cells); format: cell-based; set-up: endogenous in cells; host or cells: human CD3+ T cells isolated from venous blood of healthy volunteers
From the text: When T-cells are activated, they produce pro-inflammatory cytokines. When the A2A receptor is activated in T cells, the amount of cytokines produced in response to stimulation of T-cells is reduced.
Venous blood from healthy volunteers, all of whom signed an informed consent approved by the Ethics Committee (FOR-UIC-BV-050-01-01 ICF_HBS_HD Version 5.0), was obtained via ImmuneHealth (Centre Hospitalier Universitaire Tivoli, La Louviere, Belgium). Mononuclear cells were collected by density gradient centrifugation, using SepMate-50 tubes (StemCell Technologies, Grenoble, France) and Lymphoprep (Axis-shield, Oslo, Norway) according to the manufacturer's instructions. CD3+ T cells were isolated by immunomagnetic negative selection, using the EasySep Human T Cell Isolation Kit (StemCell Technologies) as per manufacturer's instructions. CD3+ T cells were stored in heat inactivated foetal bovine serum (hiFBS; Gibco, ThermoFisher Scientific, Merelbeke, Belgium) containing 10% DMSO in liquid nitrogen.
Human purified CD3+ T cells were thawed and washed twice with RPMI1640 medium (with UltraGlutamine; Lonza, Verviers, Belgium) supplemented with 1× non-essential amino acids (Lonza), 2% Pen/Strep (Lonza) and 1 mM Sodium Pyruvate (Gibco) (complete media), containing 10% hiFBS. The cells were suspended either in complete media containing 20% hiFBS or in 100% heat inactivated human serum (hiHS; Sigma-Aldrich, Diegem, Belgium). Cells were activated by adding anti-CD3 and anti-CD28 coated microbeads (Dynabeads human T-activator CD3/CD28; Life Technologies, Paisley, UK), suspended either in complete media containing 20% hiFBS or in 100% hiHS. […] Serial dilutions of the compounds of the present invention were prepared and added to the wells. The cells were placed in a 37° C. humidified tissue culture incubator with 5% CO2 for 72 hours. After 72 hours, supernatants were sampled and IL-2 was quantified using the IL-2 (human) AlphaLISA Biotin-Free Detection Kit (AL333F; Perkin-Elmer, Zaventem, Belgium), according to the manufacturer's instructions.

in vitro = settings: human, Caco-2, pH 7.4
Caco-2 cells = experiment: Permeability and efflux in Caco-2 cells; settings: Caco-2 monolayer, 2 μM, 120 minutes, pH 7.4
A2AR = A2AR (Mus musculus, UniProt Q60613); settings: for Score (locomotion / immobility): score observed in at least 60-100% of mice for 30 minutes
[3] = IC50 (nM) (3 nM NECA as agonist, 0.1% BSA), 3 nM NECA as agonist, 0.1% BSA
[4] = IC50 (nM) (5 nM NECA as agonist, 2% HSA), 5 nM NECA as agonist, 2% HSA
[5] = IC50 (nM) (5 μM Adenosine as agonist, 2.0% HSA), 5 μM Adenosine as agonist, 2.0% HSA
[6] = IC50 (nM) (5000 nM CGS-21680 as agonist, 50% HSA), restoration of IL-2 production, human CD3+ T cells, anti-CD3/CD28 beads, 5000 nM CGS-21680, 50% HSA, 72 hours
[7] = IC50 (nM) (500 nM CGS-21680 as agonist, 10% FBS), restoration of IL-2 production, human CD3+ T cells, anti-CD3/CD28 beads, 500 nM CGS-21680, 10% FBS, 72 hours
[8] = IC50 (nM) (500 nM CGS-21680 as agonist, 50% HSA), restoration of IL-2 production, human CD3+ T cells, anti-CD3/CD28 beads, 500 nM CGS-21680, 50% HSA, 72 hours

T1 sequence (P29274 whole entry): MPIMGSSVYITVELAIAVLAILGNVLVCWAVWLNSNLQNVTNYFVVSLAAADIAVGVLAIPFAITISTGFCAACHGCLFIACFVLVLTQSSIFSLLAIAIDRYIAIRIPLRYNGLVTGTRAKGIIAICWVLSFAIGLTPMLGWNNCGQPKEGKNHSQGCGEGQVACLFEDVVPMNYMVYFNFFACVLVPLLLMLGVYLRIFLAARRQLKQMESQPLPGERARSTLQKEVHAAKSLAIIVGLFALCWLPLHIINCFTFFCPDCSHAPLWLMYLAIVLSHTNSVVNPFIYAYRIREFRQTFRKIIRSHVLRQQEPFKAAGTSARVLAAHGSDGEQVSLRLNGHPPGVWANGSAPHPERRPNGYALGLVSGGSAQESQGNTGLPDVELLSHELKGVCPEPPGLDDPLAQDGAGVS
Sequence of A2AR (Q60613 whole entry): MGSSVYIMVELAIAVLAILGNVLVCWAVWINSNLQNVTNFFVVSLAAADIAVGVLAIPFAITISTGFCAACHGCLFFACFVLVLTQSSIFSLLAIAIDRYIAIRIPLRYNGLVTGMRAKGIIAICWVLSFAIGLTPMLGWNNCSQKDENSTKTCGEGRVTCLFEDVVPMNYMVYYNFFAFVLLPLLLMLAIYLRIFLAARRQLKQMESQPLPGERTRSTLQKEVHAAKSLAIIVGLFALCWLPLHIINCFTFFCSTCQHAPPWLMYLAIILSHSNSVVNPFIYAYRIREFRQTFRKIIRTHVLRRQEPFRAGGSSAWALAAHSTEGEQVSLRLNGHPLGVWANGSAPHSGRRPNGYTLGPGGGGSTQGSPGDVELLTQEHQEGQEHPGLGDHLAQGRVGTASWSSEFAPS

SMILES | IC50 (A2A receptor [1]; [3]) [nM] | IC50 (A2A receptor [1]; [4]) [nM] | IC50 (A2A receptor [1]; [5]) [nM] | IC50 (A2A receptor [2]; [6]) [nM] | efflux ratio at 120 min, 2 μM (in vitro) | IC50 (A2A receptor [2]; [7]) [nM] | IC50 (A2A receptor [2]) [nM] | IC50 (A2A receptor [2]; [8]) [nM] | Efflux ratio (Caco-2 cells) | Score (locomotion / immobility) (A2AR; 1 mg/kg PO 30 min prior to CGS21680) | Score (locomotion / immobility) (A2AR; 10 mg/kg PO 30 min prior to CGS21680) | effect on CGS21680 induced immobility (A2AR; P.O. at 10 mg/kg, 30 min prior to CGS21680)
Nc1nc2c(sc(=O)n2CCN2CCN(c3ccc(OCc4c[nH]nn4)cc3F)CC2)c2nc(-c3ccco3)nn12 [Compound 1, 3-(2-(4-(4-((1H-1,2,3-triazol-4-yl)methoxy)-2-fluorophenyl)-piperazin-1-yl)ethyl)-5-amino-8-(furan-2-yl)thiazolo[5,4-e][1,2,4]triazolo[1,5-c]pyrimidin-2(3H)-one] | 0.6 | 9 | 511 | 120 | 48 | – | – | – | – | – | – | –
Nc1nc2c(sc(=O)n2CCN2CCN(c3ccc(OCc4n[nH]c(=O)o4)cc3F)CC2)c2nc(-c3ccco3)nn12 [Compound 2, 5-((4-(4-(2-(5-amino-8-(furan-2-yl)-2-oxothiazolo[5,4-e][1,2,4]triazolo[1,5-c]pyrimidin-3(2H)-yl)ethyl)piperazin-1-yl)-3-fluorophenoxy)methyl)-1,3,4-oxadiazol-2(3H)-one] | 0.3 | 17 | 708 | 18 | 28 | 0.9 | – | – | – | – | – | –
CNCCNC(=O)c1ccc(N2CCN(CCn3c(=O)sc4c3nc(N)n3nc(-c5ccco5)nc43)CC2)c(F)c1 [Compound 31, 4-(4-(2-(5-amino-8-(furan-2-yl)-2-oxothiazolo[5,4-e][1,2,4]triazolo[1,5-c]pyrimidin-3(2H)-yl)ethyl)piperazin-1-yl)-3-fluoro-N-(2-(methylamino)ethyl)benzamide] | 0.4 | 1 | 42 | 14 | 28 | 2.1 | 8.3 | 5.4 | – | – | – | –
CN(C)CCNC(=O)c1ccc(N2CCN(CCn3c(=O)sc4c3nc(N)n3nc(-c5ccco5)nc43)CC2)c(F)c1 [Compound 32, 4-(4-(2-(5-amino-8-(furan-2-yl)-2-oxothiazolo[5,4-e][1,2,4]triazolo[1,5-c]pyrimidin-3(2H)-yl)ethyl)piperazin-1-yl)-N-(2-(dimethylamino)ethyl)-3-fluorobenzamide] | 4.3 | 7 | 356 | 28 | 329 | – | – | – | – | – | – | –
Nc1nc2c(sc(=O)n2CCN2CCN(c3ccc(OCC(=O)O)cc3F)CC2)c2nc(-c3ccco3)nn12 [Compound 35, 2-(4-(4-(2-(5-amino-8-(furan-2-yl)-2-oxothiazolo[5,4-e][1,2,4]triazolo[1,5-c]pyrimidin-3(2H)-yl)ethyl)piperazin-1-yl)-3-fluorophenoxy)acetic acid] | 0.7 | 13 | 378 | 84 | 26 | 0.6 | 3.9 | 0.5 | – | – | – | –
CC(C)(Oc1ccc(N2CCN(CCn3c(=O)sc4c3nc(N)n3nc(-c5ccco5)nc43)CC2)c(F)c1)C(=O)O [Compound 39, 2-(4-(4-(2-(5-amino-8-(furan-2-yl)-2-oxothiazolo[5,4-e][1,2,4]triazolo[1,5-c]pyrimidin-3(2H)-yl)ethyl)piperazin-1-yl)-3-fluorophenoxy)-2-methylpropanoic acid] | 0.8 | 15 | 719 | 150 | 110 | 1 | 5.3 | 12 | – | – | – | –
Nc1nc2c(sc(=O)n2CCN2CCN(c3cc(OCC(=O)O)c(F)cc3F)CC2)c2nc(-c3ccco3)nn12 [Compound 43, 2-(5-(4-(2-(5-amino-8-(furan-2-yl)-2-oxothiazolo[5,4-e][1,2,4]triazolo[1,5-c]pyrimidin-3(2H)-yl)ethyl)piperazin-1-yl)-2,4-difluorophenoxy)acetic acid] | 0.2 | 1 | 36 | 51 | 164 | – | – | – | – | – | – | –
Nc1nc2c(sc(=O)n2CCN2CCN(c3ccc(C(=O)O)cc3F)CC2)c2nc(-c3ccco3)nn12 [Compound 44, 4-(4-(2-(5-amino-8-(furan-2-yl)-2-oxothiazolo[5,4-e][1,2,4]triazolo[1,5-c]pyrimidin-3(2H)-yl)ethyl)piperazin-1-yl)-3-fluorobenzoic acid] | 0.5 | 11 | 127 | 33 | 69 | – | – | – | – | – | – | –
Nc1nc2c(sc(=O)n2CCN2CCN(c3ccc(OCc4nc[nH]n4)cc3F)CC2)c2nc(-c3ccco3)nn12 [Compound 49, 3-(2-(4-(4-((1H-1,2,4-triazol-3-yl)methoxy)-2-fluorophenyl)piperazin-1-yl)ethyl)-5-amino-8-(furan-2-yl)thiazolo[5,4-e][1,2,4]triazolo[1,5-c]pyrimidin-2(3H)-one] | 0.5 | 16 | 465 | 61 | 97 | – | – | – | – | – | – | –
CNCCNC(=O)COc1ccc(N2CCN(CCn3c(=O)sc4c3nc(N)n3nc(-c5ccco5)nc43)CC2)c(F)c1 [Compound 50, 2-(4-(4-(2-(5-amino-8-(furan-2-yl)-2-oxothiazolo[5,4-e][1,2,4]triazolo[1,5-c]pyrimidin-3(2H)-yl)ethyl)piperazin-1-yl)-3-fluorophenoxy)-N-(2-(methylamino)ethyl)acetamide] | 0.3 | – | 13 | 28 | 38 | 1 | 4.3 | 2.2 | – | – | – | –
Nc1nc2c(sc(=O)n2CCN2CCN(c3cc(O[C@H]4CNC[C@@H]4F)c(F)cc3F)CC2)c2nc(-c3ccco3)nn12 [Compound 92, 5-amino-3-(2-(4-(2,4-difluoro-5-(((3S,4S)-4-fluoropyrrolidin-3-yl)oxy)phenyl)piperazin-1-yl)ethyl)-8-(furan-2-yl)thiazolo[5,4-e][1,2,4]triazolo[1,5-c]pyrimidin-2(3H)-one] | 0.7 | – | 388 | – | – | – | – | – | 101 | – | – | –
COCCOc1ccc(N2CCN(CCn3ncc4c3nc(N)n3nc(-c5ccco5)nc43)CC2)cc1 [Preladenant] | – | – | – | – | – | – | – | – | – | + | 0 | inhibited CGS21680 induced immobility

— US10995101B2, “2-oxo-thiazole derivatives as A2A inhibitors and compounds for use in the treatment of cancers” (iTeos Therapeutics SA, priority 2017, dated 2021)
